As usually defined, the EC50 is the midpoint of the concentration-response curve.

Molecules are shown by their SMILES. Where a name gives a salt, the structure may show the parent alone. Read-outs that look alike come from different tables or passages of the source.

The subject of this experiment is HCT-15. Kind of experiment: HCT-15 data of payloads and linker-payloads (EC50, with or without verapamil). The format is cell-based.
Where [1] appears, read: Homo sapiens, linker-payload, HCT-15 cells, read-out: HCT-15 EC50.
Setting [2] is: Homo sapiens, payload, HCT-15 cells, no verapamil, read-out: HCT-15 EC50.
The mark [3] stands for this setting: payload, HCT-15 cells plus verapamil, read-out: HCT-15 + verapamil EC50.

Turning to `CC[C@@]1(O)C(=O)OCc2c1cc1n(c2=O)Cc2c-1nc1cc(F)c(C)c3c1c2[C@@H](NC(=O)COCNC(=O)OCc1ccc(NC(=O)[C@H](C)NC(=O)[C@@H](NC(=O)CCOCCOCCOCCOCCNC(=O)COC2C#CCCCCC2)C(C)C)cc1)CC3` (stereo partly drawn) [LP15, {4-[(2S)-2-[(2S)-2-{1-[2-(cyclooct-2-yn-1-yloxy)acetamido]-3,6,9,12-tetraoxapentadecan-15-amido}-3-methylbutanamido]propanamido]phenyl}methyl N-[({[(10S,23S)-10-ethyl-18-fluoro-10-hydroxy-19-methyl-5,9-dioxo-8-oxa-4,15-diazahexacyclo[14.7.1.0^2,^14.0^4,^13.0^6,^11.0^20,^24]tetracosa-1,6(11),12,14,16,18,20(24)-heptaen-23-yl]carbamoyl}methoxy)methyl]carbamate], the half-maximal effective concentration (EC50) under setting [1] was 96.9 nM.
For `CC[C@@]1(O)C(=O)OCc2c1cc1n(c2=O)Cc2c-1nc1cc(F)c(C)c3c1c2[C@@H](NC(=O)OCc1ccc(O[C@@H]2O[C@H](CO)[C@@H](O)[C@H](O)[C@H]2O)c(C(=O)NCCOCCOCCNC(=O)CCOCC(COCCC(=O)NCCOCCOCCNC(=O)c2cc(COC(=O)N[C@H]4CCc5c(C)c(F)cc6nc7c(c4c56)Cn4c-7cc5c(c4=O)COC(=O)[C@]5(O)CC)ccc2O[C@@H]2O[C@H](CO)[C@@H](O)[C@H](O)[C@H]2O)NC(=O)CCOCCOCCNC(=O)COC2C#CCCCCC2)c1)CC3` (some centres unmarked) [LP16], the 50% effective concentration (EC50) under setting [1] was 140 nM.
As to `CC[C@@]1(O)C(=O)OCc2c1cc1n(c2=O)Cc2c-1nc1cc(F)c(C)c3c1c2[C@@H](N)CC3` [P1, Exatecan mesylate, reference compound], the half-maximal effective concentration (EC50) under setting [2] was 1.22 nM and the 50% effective concentration (EC50) under setting [3] worked out at 1.13 nM.
On to `CC[C@@]1(O)C(=O)OCc2c1cc1n(c2=O)Cc2c-1nc1cc(F)c(C)c3c1c2[C@@H](NC(=O)CN)CC3` [P2, 2-Amino-N-[(10S,23S)-10-ethyl-18-fluoro-10-hydroxy-19-methyl-5,9-dioxo-8-oxa-4,15-diazahexacyclo[[14.7.1.0^2,^14.0^4,^13.0^6,^11.0^20,^24]]tetracosa-1,6(11),12,14,16,18,20(24)-heptaen-23-yl]acetamide], for which the EC50 by setting is: under setting [2], 61.9 nM; under setting [3], 14.3 nM.
Take `CC[C@@]1(O)C(=O)OCc2c1cc1n(c2=O)Cc2c-1nc1cc(F)c(C)c3c1c2[C@@H](NC(=O)[C@@H](N)CCC(=O)O)CC3` [P3, (4S)-4-amino-4-{[(10S,23S)-10-ethyl-18-fluoro-10-hydroxy-19-methyl-5,9-dioxo-8-oxa-4,15-diazahexacyclo[[14.7.1.0^2,^14.0^4,^13.0^6,^11.0^20,^24]]tetracosa-1,6(11),12,14,16,18,20(24)-heptaen-23-yl]carbamoyl}butanoic acid]: the 50% effective concentration (EC50) was 610 nM under setting [2] and 596 nM under setting [3].
On to `CC[C@@]1(O)C(=O)OCc2c1cc1n(c2=O)Cc2c-1nc1cc(F)c(C)c3c1c2[C@@H](NC(=O)[C@@H](N)CCCCN)CC3` [P4, (2S)-2,6-diamino-N-[(10S,23S)-10-ethyl-18-fluoro-10-hydroxy-19-methyl-5,9-dioxo-8-oxa-4,15-diazahexacyclo[[14.7.1.0^2,^14.0^4,^13.0^6,^11.0^20,^24]]tetracosa-1,6(11),12,14,16,18,20(24)-heptaen-23-yl]hexanamide], for which the half-maximal effective concentration (EC50) was determined as 447 nM under setting [2] and 581 nM under setting [3].
In the case of `CC[C@@]1(O)C(=O)OCc2c1cc1n(c2=O)Cc2c-1nc1cc(F)c(C)c3c1c2[C@@H](NC(=O)[C@@H](N)Cc1ccccc1)CC3` [P5, (2S)-2-amino-N-[(10S,23S)-10-ethyl-18-fluoro-10-hydroxy-19-methyl-5,9-dioxo-8-oxa-4,15-diazahexacyclo[[14.7.1.0^2,^14.0^4,^13.0^6,^11.0^20,^24]]tetracosa-1,6(11),12,14,16,18,20(24)-heptaen-23-yl]-3-phenylpropanamide], the EC50 under setting [2] was 48.2 nM and the concentration giving a half-maximal response (EC50) under setting [3] came to 4.2 nM.
Turning to `CC[C@@]1(O)C(=O)OCc2c1cc1n(c2=O)Cc2c-1nc1cc(F)c(C)c3c1c2[C@@H](NS(C)(=O)=O)CC3` [P6, N-[(10S,23S)-10-ethyl-18-fluoro-10-hydroxy-19-methyl-5,9-dioxo-8-oxa-4,15-diazahexacyclo[[14.7.1.0^2,^14.0^4,^13.0^6,^11.0^20,^24]]tetracosa-1,6(11),12,14,16,18,20(24)-heptaen-23-yl]methanesulfonamide], the EC50 was found to be 7.45 nM under setting [2] and 3.16 nM under setting [3].
With `CC[C@@]1(O)C(=O)OCc2c1cc1n(c2=O)Cc2c-1nc1cc(F)c(C)c3c1c2[C@@H](NCCS(C)(=O)=O)CC3` [P7, (10S,23S)-10-ethyl-18-fluoro-10-hydroxy-23-[(2-methanesulfonylethyl)amino]-19-methyl-8-oxa-4,15-diazahexacyclo[[14.7.1.0^2,^14.0^4,^13.0^6,^11.0^20,^24]]tetracosa-1,6(11),12,14,16,18,20(24)-heptaene-5,9-dione], the EC50 is 5.58 nM under setting [2] and 1.69 nM under setting [3].
`CC[C@@]1(O)C(=O)OCc2c1cc1n(c2=O)Cc2c-1nc1ccccc1c2CCNC(C)C` [P8, Belotecan HCl salt, reference compound]: the concentration for a half-maximal effect (EC50) was determined as 3.09 nM under setting [3] and 20 nM (payload, HCT-15 cells, no verapamil, read-out: HCT-15 EC50).
For `CC[C@@]1(O)C(=O)OCc2c1cc1n(c2=O)Cc2c-1nc1ccccc1c2CCN(C(C)C)S(C)(=O)=O` [P9, N-{2-[(19S)-19-ethyl-19-hydroxy-14,18-dioxo-17-oxa-3,13-diazapentacyclo[11.8.0.0^2,^11.0^4,^9.0^15,^20]henicosa-1(21),2,4,6,8,10,15(20)-heptaen-10-yl]ethyl}-N-(propan-2-yl)methanesulfonamide], the EC50 was 8.89 nM under setting [2] and 3.03 nM under setting [3].
Take `CC[C@@]1(O)C(=O)OCc2c1cc1n(c2=O)Cc2c-1nc1ccccc1c2CCN(CCO)C(C)C` [P10, (19S)-19-ethyl-19-hydroxy-10-{2-[(2-hydroxyethyl)(propan-2-yl)amino]ethyl}-17-oxa-3,13-diazapentacyclo[11.8.0.0^2,^11.0^4,^9.0^15,^20]henicosa-1(21),2,4,6,8,10,15(20)-heptaene-14,18-dione]: the 50% effective concentration (EC50) under setting [2] is 8.6 nM and the EC50 under setting [3] is 4.38 nM.
For `CC[C@@]1(O)C(=O)OCc2c1cc1n(c2=O)Cc2c-1nc1cc(F)c(C)c3c1c2[C@@H](NC(=O)CO)CC3` [P12, Dxd, reference compound], the half-maximal effective concentration (EC50) worked out at 4.18 nM (Homo sapiens, payload, HCT-15 cells plus verapamil, read-out: HCT-15 + verapamil EC50) and 7.99 nM under setting [2].
Turning to `CC[C@@](O)(C(=O)NCCN)c1cc2n(c(=O)c1COC(C)=O)Cc1c-2nc2cc(F)c(C)c3c2c1[C@@H](NC(=O)COC(C)=O)CC3` [P13, {[(19S)-6-[(Acetyloxy)methyl]-7-[(1 S)-1-[(2-aminoethyl)carbamoyl]-1-hydroxypropyl]-14-fluoro-15-methyl-5-oxo-4,11-diazapentacyclo[10.7.1.0^2,^10.0^4,^9.0^16,^20]icosa-1,6,8,10,12,14,16(20)-heptaen-19-yl]carbamoyl}methyl acetate], the EC50 under setting [2] was found to be 134 nM.
In the case of `CC[C@@]1(O)C(=O)OCc2c1cc1n(c2=O)Cc2cc3cc(O)ccc3nc2-1` [P14, 10-hydroxy camptothecin, reference compound], the 50% effective concentration (EC50) runs as follows: under setting [2], 11.6 nM; under setting [3], 6.79 nM.
On to `CC[C@@]1(O)C(=O)OCc2c1cc1n(c2=O)Cc2cc3cc(OC)ccc3nc2-1` [P15, (19S)-19-Ethyl-19-hydroxy-7-methoxy-17-oxa-3,13-diazapentacyclo[11.8.0.0^2,^11.0^4,^9.0^15,^20]henicosa-1(21),2,4,6,8,10,15(20)-heptaene-14,18-dione], for which the EC50 is, setting by setting: under setting [2], 6.99 nM; under setting [3], 4.47 nM.
Take `CCc1c2c(nc3ccc(O)cc13)-c1cc3c(c(=O)n1C2)COC(=O)[C@]3(O)CC` [P16, 7-ethyl-10-hydroxycamptothecin, reference compound]: the concentration for a half-maximal effect (EC50) runs as follows: under setting [2], 6.11 nM; under setting [3], 4.77 nM.
Take `CCc1c2c(nc3ccc(OC)cc13)-c1cc3c(c(=O)n1C2)COC(=O)[C@]3(O)CC` [P17, (19S)-10,19-Diethyl-19-hydroxy-7-methoxy-17-oxa-3,13-diazapentacyclo[11.8.0.0^2,^11.0^4,^9.0^15,^20]henicosa-1(21),2,4,6,8,10,15(20)-heptaene-14,18-dione]: the EC50 came to 1.59 nM under setting [2] and 1.44 nM under setting [3].
Consider `CCc1c2c(nc3ccc(OC)cc13)-c1cc([C@@](O)(CC)C(=O)NCCN)c(COC(C)=O)c(=O)n1C2` [P18, {7-[(1 S)-1-[(2-Aminoethyl)carbamoyl]-1-hydroxypropyl]-12-ethyl-2-methoxy-9-oxo-9H,11H-indolizino[1,2-b]quinolin-8-yl}methyl acetate], for which the EC50 turned out to be 32.5 nM under setting [2] and 32.8 nM under setting [3].
`CC[C@@]1(O)C(=O)OCc2c1cc1n(c2=O)Cc2c-1nc1ccc(OC)cc1c2CO` [P20, (19S)-19-Ethyl-19-hydroxy-10-(hydroxymethyl)-7-methoxy-17-oxa-3,13-diazapentacyclo[11.8.0.0^2,^11.0^4,^9.0^15,^20]henicosa-1(21),2,4,6,8,10,15(20)-heptaene-14,18-dione]: the concentration giving a half-maximal response (EC50) was 3.69 nM under setting [2] and 2.4 nM under setting [3].
For `CC[C@@]1(O)C(=O)OCc2c1cc1n(c2=O)Cc2c-1nc1ccc(OC)cc1c2CN` [P22, (19S)-10-(Aminomethyl)-19-ethyl-19-hydroxy-7-methoxy-17-oxa-3,13-diazapentacyclo[11.8.0.0^2,^11.0^4,^9.0^15,^20]henicosa-1(21),2,4,6,8,10,15(20)-heptaene-14,18-dione], the half-maximal effective concentration (EC50) under setting [2] was 31.9 nM and the half-maximal effective concentration (EC50) under setting [3] came out at 40.5 nM.
Consider `CC[C@@]1(O)C(=O)OCc2c1cc1n(c2=O)Cc2c-1nc1ccc(OC)cc1c2CNCCCN=[N+]=[N-]` [P23, (S)-11-(((3-azidopropyl)amino)methyl)-4-ethyl-4-hydroxy-9-methoxy-1,12-dihydro-14H-pyrano[3′,4′:6,7]indolizino[1,2-b]quinoline-3,14(4H)-dione], for which the concentration giving a half-maximal response (EC50) under setting [2] stood at 36.7 nM.
For the compound `C#CCNCc1c2c(nc3ccc(OC)cc13)-c1cc3c(c(=O)n1C2)COC(=O)[C@]3(O)CC` [P24, (S)-4-ethyl-4-hydroxy-9-methoxy-11-((prop-2-yn-1-ylamino)methyl)-1,12-dihydro-14H-pyrano[3′,4′:6,7]indolizino[1,2-b]quinoline-3,14(4H)-dione], the EC50 under setting [2] worked out at 13.5 nM.

Source of the values: patent publication US20230287138A1, “PROTEIN-DRUG CONJUGATES COMPRISING CAMPTOTHECIN ANALOGS AND METHODS OF USE THEREOF” (Regneron Pharmaceuticals, Inc., priority 2022, published 2023).
